According to patent US8138175B2, “Heterocyclyl compounds” (Hoffmann-La Roche Inc., priority 2008, dated 2012):

Molecular target: T1, human chemokine receptor 2 isoform B (Homo sapiens, UniProt P41597)
T1 construct: host or cells: CHOK1-CCR2B-A5 (CHO-K1) cells
T1 sequence (P41597 1-360 isoform P41597-2): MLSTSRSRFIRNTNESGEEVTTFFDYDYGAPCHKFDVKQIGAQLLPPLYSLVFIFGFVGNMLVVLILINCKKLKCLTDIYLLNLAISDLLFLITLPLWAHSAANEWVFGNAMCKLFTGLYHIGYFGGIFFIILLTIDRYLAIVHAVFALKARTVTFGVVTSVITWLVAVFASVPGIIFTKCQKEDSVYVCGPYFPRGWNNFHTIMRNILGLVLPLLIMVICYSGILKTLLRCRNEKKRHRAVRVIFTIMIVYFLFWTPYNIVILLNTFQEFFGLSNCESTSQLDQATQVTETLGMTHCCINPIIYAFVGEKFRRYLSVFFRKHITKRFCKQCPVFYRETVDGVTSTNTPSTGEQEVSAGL
Assay: Calcium mobilization assay
Assay type: cell-based
Details: Ca mobilization assay for CCR2; CHOK1-CCR2B-A5 cells; antagonist activity against 20 nM MCP-1; FLIPR, Fluo-4
Description: Calcium Mobilization Assay
CHOK1-CCR2B-A5 cells (from Euroscreen) stably overexpressing the human chemokine receptor 2 isoform B were cultured in Nutrient Hams F12 medium supplemented with 5% FBS, 100 U/ml penicillin, 100 μg/ml streptomycin, 400 μg/ml G418 and 5 μg/ml puromycin.
For the assay cells were grown overnight in 384-well black clear flat bottom polystyrene plates (Costar) at 37° C. at 5% CO2. After washing with DMEM, 20 mM Hepes, 2.5 mM probenecid, 0.1% BSA (DMEM assay buffer) cells were loaded with 4 μM Fluo-4 in the same DMEM assay buffer for 2 hours at 30° C. Excess dye was removed and cells were washed with DMEM assay buffer. 384-well compound plates were prepared with DMEM assay buffer/0.5% dimethyl sulfoxide with or without various concentrations of test compounds. Usually compounds were tested for agonist and antagonist activity.
Test compounds were added to the assay plate and agonist activity was monitored as fluorescence for 80 seconds with a FLIPR (488 nm excitation; 510-570 nm emission; Molecular Devices). After 20-30 min. of incubation at 30° C., 20 nM MCP-1 (R&D; Roche) was added and fluorescence was monitored again for 80 seconds. Increases in intracellular calcium are reported as maximum fluorescence after agonist exposure minus basal fluorescence before exposure. Antagonist activity is indicated as inhibitor concentration required for 50% inhibition of specific calcium increases.

| IC50 [nM] | SMILES |
| --- | --- |
| 15 | CC1C(=O)N(CC[C@H](O)CN2CCC3(CC3)[C@H](O)C2)CCN1c1ccc(Cl)c(Cl)c1 (stereo partly drawn) [Example 107, 4-(3,4-Dichloro-phenyl)-1-[(S)-3-hydroxy-4-((S)-4-hydroxy-6-aza-spiro[2.5]oct-6-yl)-butyl]-3-methyl-piperazin-2-one] |
| 16 | COC(=O)[C@H](CCN1CCC2(CC2)[C@H](O)C1)N1C[C@@H](C)N(c2ccc(Cl)c(Cl)c2)CCC1=O [Example 65, (S)-2-[(R)-4-(3,4-dichloro-phenyl)-3-methyl-7-oxo-[1,4]diazepan-1-yl]-4-((S)-4-hydroxy-6-aza-spiro[2.5]oct-6-yl)-butyric acid methyl ester] |
| 546 | COC(=O)[C@H](CCN1CCC2(CC2)[C@H](O)C1)N1C[C@H](C)N(c2ccc(Cl)c(Cl)c2)CCC1=O [Example 66, (S)-2-[(S)-4-(3,4-dichloro-phenyl)-3-methyl-7-oxo-[1,4]diazepan-1-yl]-4-((S)-4-hydroxy-6-aza-spiro[2.5]oct-6-yl)-butyric acid methyl ester] |
| 8 | C[C@H]1C(=O)N(C[C@@H](O)CN2CCC3(CC3)[C@H](O)C2)CCN1c1ccc(Cl)c(Cl)c1 [Example 99, (S)-4-(3,4-dichloro-phenyl)-1-[(S)-2-hydroxy-3-((S)-4-hydroxy-6-aza-spiro[2.5]oct-6-yl)-propyl]-3-methyl-piperazin-2-one] |
| 92 | C[C@@H]1C(=O)N(CCCN2CCC3(CC3)[C@H](O)C2)CCN1c1ccc(C(F)(F)F)c(F)c1 [Example 103, (R)-4-(3-fluoro-4-trifluoromethyl-phenyl)-1-[3-((S)-4-hydroxy-6-aza-spiro[2.5]oct-6-yl)-propyl]-3-methyl-piperazin-2-one] |
| 325 | CC[C@@H]1C(=O)N(CCCN2CCC3(CC3)[C@H](O)C2)CCN1c1ccc(Cl)c(Cl)c1 [Example 88, (R)-4-(3,4-dichloro-phenyl)-3-ethyl-1-[3-((S)-4-hydroxy-6-aza-spiro[2.5]oct-6-yl)-propyl]-piperazin-2-one] |
| 10 | CC1C(=O)N(C(CO)CCN2CCC3(CC3)[C@H](O)C2)CCN1c1cccc(C(F)(F)F)c1 (stereo partly drawn) [Example 55, 1-[3-((S)-4-Hydroxy-6-aza-spiro[2.5]oct-6-yl)-1-hydroxymethyl-propyl]-3-methyl-4-(3-trifluoromethyl-phenyl)-piperazin-2-one] |
| 13 | C[C@H]1C(=O)N(CCCN2CCC3(CC3)[C@H](O)C2)CCN1c1ccc(F)c(C(F)(F)F)c1 [Example 78, (S)-4-(4-Fluoro-3-trifluoromethyl-phenyl)-1-[3-((S)-4-hydroxy-6-aza-spiro[2.5]oct-6-yl)-propyl]-3-methyl-piperazin-2-one] |
| 334 | C[C@@H]1C(=O)N(C[C@H](O)CN2CCC3(CC3)[C@H](O)C2)CCN1c1ccc(Cl)c(Cl)c1 [Example 100, (R)-4-(3,4-Dichloro-phenyl)-1-[(R)-2-hydroxy-3-((S)-4-hydroxy-6-aza-spiro[2.5]oct-6-yl)-propyl]-3-methyl-piperazin-2-one] |
| 330 | CN(C(=O)[C@H](CCN1CCC2(CC2)[C@H](O)C1)N1CCN(c2ccc(Cl)c(Cl)c2)CCC1=O)C1CC1 [Example 62, (S)—N-Cyclopropyl-2-[4-(3,4-dichloro-phenyl)-7-oxo-[1,4]diazepan-1-yl]-4-((S)-4-hydroxy-6-aza-spiro[2.5]oct-6-yl)-N-methyl-butyramide] |
| 663 | NC(=O)[C@H](CCN1CCC2(CC2)[C@H](O)C1)N1CCN(c2ccc(Cl)c(Cl)c2)CCC1=O [Example 64, (S)-2-[4-(3,4-Dichloro-phenyl)-7-oxo-[1,4]diazepan-1-yl]-4-((S)-4-hydroxy-6-aza-spiro[2.5]oct-6-yl)-butyramide] |
| 680 | CC1C(=O)N(CC2CCCN(C)C2)CCN1c1cccc(C(F)(F)F)c1 (centres unmarked) [Example 58, 3-Methyl-1-(1-methyl-piperidin-3-ylmethyl)-4-(3-trifluoromethyl-phenyl)-piperazin-2-one] |
| 10 | COC(=O)C(CCN1CCC2(CC2)[C@H](O)C1)N1CCN(c2cccc(OC(F)(F)F)c2)C(C)C1=O (stereo partly drawn) [Example 47, 4-((S)-4-Hydroxy-6-aza-spiro[2.5]oct-6-yl)-2-[3-methyl-2-oxo-4-(3-trifluoromethoxy-phenyl)-piperazin-1-yl]-butyric acid methyl ester] |

Further lines, the compound ahead of its results:

| SMILES | IC50 [nM] |
| --- | --- |
| COC(=O)[C@H](CCN1CCC2(CC2)[C@H](O)C1)N1CCN(c2cccc(Cl)c2)CCC1=O [Example 3, (S)-2-[4-(3-Chloro-phenyl)-7-oxo-[1,4]diazepan-1-yl]-4-((S)-4-hydroxy-6-aza-spiro[2.5]oct-6-yl)-butyric acid methyl ester] | 130 |
| O=C1CCN(c2cccc(C(F)(F)F)c2)CCN1CCCN1CCC(O)(c2ccccc2)CC1 [Example 34, 4-[3-(4-Hydroxy-4-phenyl-piperidin-1-yl)-propyl]-1-(3-trifluoromethyl-phenyl)-[1,4]diazepan-5-one] | 930 |
| COC(=O)[C@H](CCN1CCC2(CC2)[C@H](O)C1)N1CCN(c2cccc(OC(F)(F)F)c2)CCC1=O [Example 13, (S)-4-((S)-4-Hydroxy-6-aza-spiro[2.5]oct-6-yl)-2-[7-oxo-4-(3-trifluoromethoxy-phenyl)-[1,4]diazepan-1-yl]-butyric acid methyl ester] | 30 |
| COC(=O)[C@@H](CCN1CCC2(CC2)[C@H](O)C1)N1CCN(c2cccc(C(F)(F)F)c2)CCC1=O [Example 8, (R)-4-((S)-4-Hydroxy-6-aza-spiro[2.5]oct-6-yl)-2-[7-oxo-4-(3-trifluoromethyl-phenyl)-[1,4]diazepan-1-yl]-butyric acid methyl ester] | 600 |
| C[C@H]1C(=O)N(CCCN2CCC3(CC3)[C@H](O)C2)CCN1c1cccc(OC(F)(F)F)c1 [Example 45, (S)-1-[3-((S)-4-Hydroxy-6-aza-spiro[2.5]oct-6-yl)-propyl]-3-methyl-4-(3-trifluoromethoxy-phenyl)-piperazin-2-one] | 10 |
| COC(=O)[C@H](CCN1CCC2(CC2)[C@H](O)C1)N1CCN(c2ccc(OC(F)(F)F)cc2)CCC1=O [Example 11, (S)-4-((S)-4-Hydroxy-6-aza-spiro[2.5]oct-6-yl)-2-[7-oxo-4-(4-trifluoromethoxy-phenyl)-[1,4]diazepan-1-yl]-butyric acid methyl ester] | 400 |
| COC(=O)[C@H](CCN1CCC2(CC2)[C@H](O)C1)N1CCN(c2ccc(C(F)(F)F)cc2)CCC1=O [Example 19, (S)-4-((S)-4-Hydroxy-6-aza-spiro[2.5]oct-6-yl)-2-[7-oxo-4-(4-trifluoromethyl-phenyl)-[1,4]diazepan-1-yl]-butyric acid methyl ester] | 410 |
| C[C@H]1C(=O)N(CCCN2CCCCC2)CCN1c1cccc(OC(F)(F)F)c1 [Example 42, (S)-3-Methyl-1-(3-piperidin-1-yl-propyl)-4-(3-trifluoromethoxy-phenyl)-piperazin-2-one] | 180 |
| C[C@H]1C(=O)N(CCCN2CCC3(CC3)[C@H](O)C2)CCN1c1ccc(F)c(OC(F)(F)F)c1 [Example 86, (S)-4-(4-Fluoro-3-trifluoromethoxy-phenyl)-1-[3-((S)-4-hydroxy-6-aza-spiro[2.5]oct-6-yl)-propyl]-3-methyl-piperazin-2-one] | 33 |
| COC(=O)[C@H](CCN1CCC2(CC2)[C@H](O)C1)N1CCN(c2cccc(C(F)(F)F)c2)CCC1=O [Example 5, (S)-4-((S)-4-Hydroxy-6-aza-spiro[2.5]oct-6-yl)-2-[7-oxo-4-(3-trifluoromethyl-phenyl)-[1,4]diazepan-1-yl]-butyric acid methyl ester] | 20 |
